One compound from ChEMBL document CHEMBL1143192, “Anti-HIV-1 entry optimization of novel imidazopiperidine-tropane CCR5 antagonists” (Bioorg Med Chem Lett, 2008) can be followed below.

SMILES strings stand for the structures.

Holding throughout (type): ADME, organism-based
Data set [1] is described as follows: AUC in rat at 30 mg/kg, po. Also noted: dose 30 mg/kg, route oral. As to conditions: plasma.
Data set [2] in a line: Oral bioavailability in rat at 30 mg/kg. The following applies: in vivo.
Data set [3] is described as follows: AUC in rat at 5 mg/kg, iv. Also noted: dose 5 mg/kg, route intravenous. As to conditions: plasma.
Data set [4] can be described thus: Cmax in rat at 5 mg/kg, iv. Details: dose 5 mg/kg, route intravenous. The following applies: in vivo.
Data set [5] is described as follows: Clearance in rat at 5 mg/kg, iv. Details: dose 5 mg/kg, route intravenous. The following applies: in vivo.
Data set [6] can be described thus: Half life in rat at 30 mg/kg, po. Details: dose 30 mg/kg, route oral. The following applies: in vivo.
Data set [7] can be described thus: Half life in rat at 5 mg/kg, iv. Details: dose 5 mg/kg, route intravenous. As to conditions: in vivo.
Data set [8] is described as follows: Cmax in rat at 30 mg/kg, po. Also noted: dose 30 mg/kg, route oral. The following applies: in vivo.

The term AUC denotes the area under the concentration-time curve, a measure of exposure. Broadly, the bioavailability is the share of a dose that reaches the circulation, judged against a reference dose that is usually intravenous. Read a low bioavailability as little systemic uptake. By Cmax is commonly meant the highest concentration seen after dosing. As usually defined, the clearance is a measure of how efficiently the substance is removed, as volume per time. The low end stands for inefficient removal, the high end for efficient removal. In general, half-life refers to how long it takes for the measured level to halve. A higher half-life goes with slow decline.

As for `CC(=O)N1CCc2c(nc(C)n2[C@@H]2C[C@H]3CC[C@@H](C2)N3CCCN(C(=O)Nc2ccc(C(F)(F)F)cc2)c2ccccc2)C1`, the area under the curve (AUC) in data set [1] was 8990 ng·h/mL; in data set [3] it was 2890 ng·h/mL. Also, the bioavailability in data set [2] came out at 52%. For the same compound, the Cmax in data set [4] turned out to be 860 ng/mL; in data set [8], 540 ng/mL. Moreover, the clearance in data set [5] came to 28.8 mL/min/kg. Further, the results for the half-life in data set [6] and in data set [7] were 7.2 h and 10.7 h, respectively.
